Measurements: paper PMC7677930, “In Vitro and In Silico ADME-Tox Profiling and Safety Significance of Multifunctional Monoamine Oxidase Inhibitors Targeting Neurodegenerative Diseases” (ACS Chemical Neuroscience, 2020)

Columns and labels:
MAO B = settings: Figure 1; cited from earlier work
hS1R = settings: read-out: KihS1R; cited from earlier work
WTIIB cells [1] = experiment: crystal violet cell viability assay on WTIIB; format: cell-based, mouse; settings: for concentration at which compound began to elicit toxicity: crystal violet, 24 h, 1-300 μM tested; for toxicity compared with ASS234: crystal violet (Figure 5D)
Procedure: (§1) The human hepatoma cell line (Huh7) was purchased from the American Type Culture Collection (ATCC, Manassas, VA, USA). The generation and characterization of the immortalized mouse hepatocyte cell line WTIIB has been previously described.[24] Cell viability was measured by the quantitative colorimetric MTT (3-[4,5-dimethylthiazol-2-yl]-2,5 diphenyl tetrazolium bromide) assay as previously described, and triarylmethane dye (violet) assay following the protocol adapted from Feoktistova et al.[25] After the incubation period with the compounds, MTT reagent was added to each well at a final concentration of 0.5 mg/mL. The plate was placed in a humidified incubator at 37 °C with 5% CO2 and 95% air for 2 h. Then, the precipitated formazan was dissolved with dimethyl sulfoxide (DMSO) and the colorimetric determination of MTT was measured in the spectrophotometer at 540 nm wavelength. Nontreated cells were considered controls and were taken as 100% viability.
(§2) To perform the crystal violet assay, wells were washed twice in PBS and cells were fixed with 100 μL of crystal violet (Sigma-Aldrich, Madrid, Spain) solution at 0.2% prepared in ethanol. Plates were incubated for 20 min at room temperature in a bench rocker. Next, wells were washed four times with distilled water, and then the plate was inverted gently to remove any remaining liquid. The plate was dried at room temperature for at least 2 h and attached cells were resuspended in SDS 1% for 30 min in a bench rocker. The optical density was measured in the spectrophotometer at 540 nm wavelength. Nontreated cells were considered controls and were taken as 100% viability.

[2] = precipitation during incubation in MTS assay; format: physicochemical; settings: 72 h
Procedure: (A) Concentration–response on HEK-293 cells. (B) Concentration–response on HepG2 cells. Statistical significance was evaluated by one-way ANOVA, followed by Bonferroni’s comparison test (****p < 0.0001). DX, doxorubicin; CCCP, carbonyl cyanide 3-chlorophenyl […]. ASS234 precipitated at 100 μM during incubation.
(§3) Cytotoxicity and hepatotoxicity were estimated using the human embryonic kidney HEK-293 cell line (ATCC CRL-1573) and hepatoma HepG2 (ATCC HB-8065) cell line. The CellTiter 96 Aqueous Non-Radioactive Cell Proliferation Assay (MTS) was purchased from Promega (Madison, WI, USA) and performed according to the manufacturer’s protocol. […] The antiproliferative drug doxorubicin (DX) (1 μM) and mitochondrial toxin carbonyl cyanide 3-chlorophenyl-hydrazone (CCCP) (10 μM, only in hepatotoxicity assay) were used as positive controls (purchased from Sigma-Aldrich, St. Louis, MO, USA).

Huh7 cells [3] = experiment: crystal violet cell viability assay on Huh7; format: cell-based, human; settings: for concentration at which compound began to elicit toxicity: Huh7, crystal violet, 24 h, 1-300 μM tested; for toxicity compared with ASS234: Huh7, crystal violet (Figure 5C)
Procedure: as §1, §2

WTIIB cells [4] = experiment: MTT cell viability assay on WTIIB; format: cell-based, mouse; settings: for concentration at which compound began to elicit toxicity: MTT, 24 h, 1-300 μM tested
Procedure: as §1

Huh7 cells [5] = experiment: MTT cell viability assay on Huh7; format: cell-based, human; settings: for concentration at which compound began to elicit toxicity: Huh7, MTT, 24 h, 1-300 μM tested; for toxicity compared with ASS234: Huh7, MTT (Figure 5A)
Procedure: as §1

[6] = metabolic stability, 2 h incubation with human liver microsomes, UPLC-MS; format: in vitro ADME
From the text: The metabolic stability of a compound is an important factor that determines its pharmacokinetics and its potential as a drug candidate. Drugs are being metabolized in a variety of tissues including lungs, kidneys, or intestinal walls, but the liver plays an essential role in this process.
Then, the UPLC/MS analyses were done by using a Waters ACQUITY TQD system with the TQ Detector (Waters, Milford, MA, USA). The in silico prediction of the most probable sites of metabolism was done by ADMET Predictor, ver. […]
7.4) at 37 °C in the presence of NADPH Regeneration System (Promega, Madison, WI, USA). […]

MAO A = settings: Figure 1; cited from earlier work
hBuChE = settings: cited from earlier work
hAChE = settings: cited from earlier work
[7] = test system: SH-SY5Y human neuroblastoma cells; parameters: method as in PMID 28861918; settings: cited from earlier work
HEK-293 cells = experiment: MTS cell viability assay on HEK-293; format: cell-based, human; settings: HEK-293, MTS, 72 h; tested at 1, 10, 50, 100 μM
Procedure: as §3

HepG2 cells = experiment: MTS cell viability assay on HepG2; format: cell-based, human; settings: 72 h, tested at 1, 10, 50, 100 μM
Procedure: as §3

[8] = target: histamine H3 receptor (H3R); settings: cited from earlier work

Compound	IC50 (MAO B) [nM]	Ki (hS1R) [nM]	concentration at which compound began to elicit toxicity (WTIIB cells [1]) [µM]	concentration at which compound began to elicit toxicity (Huh7 cells [3]) [µM]	concentration at which compound began to elicit toxicity (WTIIB cells [4]) [µM]	concentration at which compound began to elicit toxicity (Huh7 cells [5]) [µM]	parent compound detected after incubation with HLMs [6]	IC50 (MAO A) [nM]	IC50 (hBuChE) [nM]	further results
C#CCN(C)Cc1cc2cc(OCCCC3CCN(Cc4ccccc4)CC3)ccc2n1C [ASS234]	177	3	≥ 30	≥ 30	≥ 30	≥ 30	the compound was not detected	5	1820	concentration at which compound precipitated during incubation [2]: 100 µM; IC50 (hAChE): 810 nM
C#CCNCc1cc2cc(OCc3ccccc3)ccc2[nH]1 [PF9601N, N-(2-Propynyl)-2-(5-Benzyloxy-Indolyl) Methylamine]	22	–	–	–	–	–	95%	1250	–	–
C#CCN(C)Cc1cc2cc(OCCCN3CCCCC3)ccc2n1C [contilisant]	78	65	100	≥ 30	100	≥ 30	97%	–	1690	toxicity compared with ASS234 (WTIIB cells [1]; 100 μM): less toxic than ASS234; toxicity compared with ASS234 (WTIIB cells [1]; 300 μM): more toxic than ASS234; toxicity compared with ASS234 (Huh7 cells [3]; 30 μM): less toxic than ASS234; toxicity compared with ASS234 (Huh7 cells [3]; 300 μM): more toxic than ASS234; effective concentration used in neuroprotection experiments [7]: 0.3 to 3 µM; toxicity compared with ASS234 (WTIIB cells [4]; 300 μM, MTT (Figure 5B)): more toxic than ASS234; concentration range not affecting cell viability (HEK-293 cells): up to 10 μM; toxicity compared with ASS234 (Huh7 cells [5]; 30 μM): less toxic than ASS234; toxicity compared with ASS234 (Huh7 cells [5]; 300 μM): more toxic than ASS234; concentration range not affecting cell viability (Huh7 cells [5]; Huh7, abstract, assay not specified (MTT / crystal violet)): up to 30 μM; concentration range not affecting cell viability (HepG2 cells): up to 50 μM; Ki [8]: 11 nM
C#CCN(C)[C@H](C)Cc1ccccc1 [selegiline, reference compound]	–	–	–	–	–	–	–	–	–	fraction of compound metabolized by HLMs [6]: about 54%
